Reference: patent publication US20140212441A1, “PHARMACEUTICAL COMPOSITION FOR INFLAMMATORY DISEASES, ALLERGIC DISEASES AND AUTOIMMUNE DISEASES” (R-TECH UENO, LTD., priority 2011, published 2014)

What was measured:
[1] = test system: transcription factor NFAT-1; assay: NF-AT gene transcription suppression test (lac Z reporter, Jurkat cells); format: cell-based; conditions: Homo sapiens, lac Z under NFAT-1 site, A23187 + PMA, β-galactosidase activity
Protocol: (§1) Human T lymphocyte Jurkat cells transformed with a β-galactosidase gene (lac Z) having a DNA binding site for the transcription factor NFAT-1 in its transcriptional control region (2.3×10^6/mL) were cultured together with a given concentration of compound A in a pH 7.4 RPMI-1640 medium at 37° C. for 20 minutes, and, after added with […] A23187 (calcium ionophore) and 50 ng/mL PMA (Phorbol 12-myristate 13-acetate), further cultured for 4 hours. The activity of β-galactosidase was measured by conversion from FDG (fluorescein-di-beta-D-galactopyranoside) to fluorescein. Fluorescent emission was measured using a SpectroFluor Plus plate reader and IC50 was calculated.

[2] = test system: PiCl-induced atopic dermatitis model mice (NC/NgaTndCrlj, male); assay: Atopic dermatitis mouse model: hair restoration score; format: in vivo; parameters: key to Hair restoration score (average ± standard error): 0 = no hair growth, 3 = hair restoration in 75-100% of site
Protocol: (§2) An atopic dermatitis mouse model (NC/NgaTndCrlj, male) induced by picryl chloride (PiCl) was used to evaluate effects against dermal inflammation and hair conditions on the skin suffering from dermal inflammation.
(§3) PiCl-induced atopic dermatitis model mice were prepared by applying a PiCl solution to the sheared abdomen and footpad for sensitization and applying the PiCl solution to the sheared back and the right and left ears (both the inside and outside thereof) once a week for 5 weeks starting from the 5th day after sensitization for repeated induction. In each group, administration was performed once a day for 28 days starting from the 18th day after PiCl sensitization. Compound A and 0.1% tacrolimus ointment were openly applied to a ca. 3 cm×ca. 5 cm region of the neck and back of the model animals. The animals of the 5th group (the group of combined administration of prednisolone and 0.6 w/v % compound A) were orally administered 1 mg/kg of prednisolone and then transdermally administered 0.6 w/v % compound A. The animals of the 6th group (the group of combined administration of 0.1% tacrolimus ointment and 0.6 w/v % compound A) were administered 0.1% tacrolimus ointment at or beyond 3.5 hours after administration of 0.6 w/v % compound A.
(§4) Each evaluation used a dermatitis score and a hair restoration score. The scores were obtained by grading dermatitis and hair growth/hair restoration conditions at Day 1, 8, 15, 22, and 29 (the next day after final administration) of administration, according to the following criteria.
<Hair Growth/Hair Restoration Condition> A region received transdermal administration (a ca. 3 cm×ca. 5 cm region of the neck and back) of each individual was observed.
0: No hair growth or hair restoration is noted in the observation site.
1: Hair growth and hair restoration are noted in 0<25% of the observation site.
2: Hair growth and hair restoration are noted in 25≦75% of the observation site.
3: Hair growth and hair restoration are noted in 75≦100% of the observation site.
Hair condition in the skin suffering from dermal inflammation was evaluated using hair restoration scores at Day 15, 22 and 29 of administration.

[3] = test system: PiCl-induced atopic dermatitis model mice (NC/NgaTndCrlj, male); assay: Atopic dermatitis mouse model: dermatitis score; format: in vivo; parameters: key to Dermatitis score (average ± standard error): sum of grades of five findings, each 0 (subclinical) to 3 (severe)
Protocol: as §2, §3, §4
<Dermatitis Findings> The dermatitis score of each individual was expressed as the sum of grades (0: subclinical to 3: severe) of the following dermatitis findings (1) to (5).
(2) Flare/bleeding: Flare and bleeding symptoms in the induction site were observed.
(3) Edema: The edema of the auricle as the induction site was qualitatively observed.
An effect against atopic dermal inflammation was evaluated using the dermatitis score at Day 8 of administration.

[4] = test system: transcription factor NF-κB; assay: NF-κB gene transcription suppression test (lac Z reporter, Jurkat cells); format: cell-based; conditions: Homo sapiens, lac Z under NF-κB site, A23187 + PMA, β-galactosidase activity
Protocol: as §1, with “NF-κB” for “NFAT-1”

[5] = test system: LPS-stimulated mouse B cell proliferation; assay: B cell proliferation suppression test; format: cell-based; conditions: LPS-stimulated Balb/c spleen B lymphocytic cells, 3H thymidine uptake
Protocol: (§5) B lymphocytic cells (2×10^6/mL) isolated from the spleen of Balb/c mice (weighing 17±1 g) were cultured in a pH 7.4 AIM-V medium containing a given concentration of compound A and 10 mg/mL of a lipopolysaccharide (LPS) at 37° C. for 24 hours, and, after added with 120 nM ^3H thymidine, further cultured for 16 hours. The cells were collected by filter filtration, and the uptake of thymidine into the cells was measured using a liquid scintillation counter to evaluate the cell proliferation-suppressing effect and calculate IC50.

[6] = test system: Con A-stimulated mouse T cell proliferation; assay: T cell proliferation suppression test; format: cell-based; conditions: Con A-stimulated Balb/c thymus T lymphocytic cells, 3H thymidine uptake
Protocol: as §5, with “T lymphocytic” for “B lymphocytic”, “cells (5×10^6/mL)” for “cells (2×10^6/mL)”, “the thymus” for “the spleen”, “and […]” for “and 10”, “of concanavalin A (Con A)” for “of a lipopolysaccharide (LPS)”

[7] = 0.08 w/v % Compound A transdermal once a day, Day 15
[8] = 0.08 w/v % Compound A transdermal once a day, Day 22
[9] = 0.08 w/v % Compound A transdermal once a day, Day 29
[10] = 0.3 w/v % Compound A transdermal once a day, Day 1
[11] = 0.3 w/v % Compound A transdermal once a day, Day 15
[12] = 0.3 w/v % Compound A transdermal once a day, Day 22
[13] = 0.3 w/v % Compound A transdermal once a day, Day 29
[14] = 0.6 w/v % Compound A transdermal once a day, Day 1
[15] = 0.6 w/v % Compound A transdermal once a day, Day 15
[16] = 0.6 w/v % Compound A transdermal once a day, Day 22

In the case of `CCCCCCCC1(CC[C@@H]2[C@@H](C/C=C\CCCC(=O)OC(C)C)[C@@H](O)C[C@H]2O)OCCO1` [Compound A, isopropyl (Z)-7-[(1R,2R,3R,5S)-2-(3,3-ethylenedioxydecyl)-3,5-dihydroxycyclopentyl]hept-5-enoate], the IC50 [1] is reported as 1.32 µM, the “Hair restoration score (average ± standard error)” value ([2]; 0.08 w/v % Compound A transdermal once a day, Day 1) is reported as 0.0 ± 0.0 and the “Hair restoration score (average ± standard error)” value [2, 7] is reported as 2.2 ± 0.1. For the same molecule, the “Hair restoration score (average ± standard error)” value [2, 8] was 1.4 ± 0.2, the “Hair restoration score (average ± standard error)” value [2, 9] was 1.5 ± 0.2 and the “Hair restoration score (average ± standard error)” value [2, 10] was 0.0 ± 0.0. For the same molecule, the “Hair restoration score (average ± standard error)” value [2, 11] was 2.1 ± 0.2, the “Hair restoration score (average ± standard error)” value [2, 12] was 1.6 ± 0.2 and the “Hair restoration score (average ± standard error)” value [2, 13] was 1.9 ± 0.2. For the same molecule, the “Hair restoration score (average ± standard error)” value [2, 14] was 0.0 ± 0.0, the “Hair restoration score (average ± standard error)” value [2, 15] was 1.8 ± 0.2 and the “Hair restoration score (average ± standard error)” value [2, 16] was 1.5 ± 0.2. For the same molecule, the “Hair restoration score (average ± standard error)” value ([2]; 0.6 w/v % Compound A transdermal once a day, Day 29, P < 0.05 vs Day 22) was 2.0 ± 0.0, the “change in hair restoration score (improvement in the hair loss)” value ([2]; Day 29 of administration compared to Day 22) was “observed in a dose-dependent manner” and the “Dermatitis score (average ± standard error)” value ([3]; 0.08 w/v % Compound A transdermal once a day, Day 1 of administration) was 3.8 ± 0.4. The “Dermatitis score (average ± standard error)” value ([3]; 0.08 w/v % Compound A transdermal once a day, Day 8) was 3.7 ± 0.6, the “Dermatitis score (average ± standard error)” value [3, 7] was 6.2 ± 0.7 and the “Dermatitis score (average ± standard error)” value [3, 8] was 8.0 ± 0.5. The “Dermatitis score (average ± standard error)” value [3, 9] was 9.0 ± 0.7, the “Dermatitis score (average ± standard error)” value [3, 10] was 3.3 ± 0.5 and the “Dermatitis score (average ± standard error)” value ([3]; 0.3 w/v % Compound A transdermal once a day, Day 8) was 3.5 ± 0.4. For the same molecule, the “Dermatitis score (average ± standard error)” value [3, 11] was 5.5 ± 0.5, the “Dermatitis score (average ± standard error)” value [3, 12] was 7.5 ± 0.7 and the “Dermatitis score (average ± standard error)” value [3, 13] was 8.1 ± 0.5. The “Dermatitis score (average ± standard error)” value [3, 14] was 3.6 ± 0.3, the “Dermatitis score (average ± standard error)” value [3, 15] was 6.0 ± 0.7 and the “Dermatitis score (average ± standard error)” value [3, 16] was 8.3 ± 0.4. The “Dermatitis score (average ± standard error)” value ([3]; 0.6 w/v % Compound A transdermal once a day, Day 29) was 9.3 ± 0.6, the “progression of early dermatitis” value ([3]; compared to the group administered with the base for compound A, Day 8 dermatitis score) was “tendency to be suppressed” and the IC50 [4] was 1.33 µM. It also gave an IC50 [5] of 9.23 µM and an IC50 [6] of 6.3 µM.
